Test results as given in patent publication US20240100172A1, “METHODS AND COMPOUNDS FOR TARGETED AUTOPHAGY” (Hangzhou Jijing Pharmaceutical Technology Limited, priority 2020, published 2024).
Marks after values point to notes of the source that are not given here.

Columns and labels:
KRAS = target: T1, KRAS (Homo sapiens, UniProt P01116, G12C); test: KRAS levels in NCI-H2030 cells (Western blot); type: cell-based
T1 construct: endogenous in cells; host or cells: NCI-H2030
Description: The following protocol was used to test the effect of exemplary compounds on KRAS levels in NCI-H2030 cells.
On Day 1, seed NCI-N2030 cells were placed into 6-well plates (3.5×10^5 cells/well/2 mL) and incubated for 24 hours. On Day 2, 6 μL compound solutions were added into testing wells in order to obtain compound concentrations of 3.33 μM and 10 μM—with DMSO concentrations of 0.3%. The wells were thoroughly agitated and incubated for 24 hours. On Day 3, the supernatant in the testing wells was discarded, and the testing wells were washed once with 1 mL of cold PBS. Then, 100 μL of RIPA buffer (Boston BioProducts BP-115D) was added to the testing wells with 1× complete protease inhibitor (Roche, #4693116001) and phosphatase inhibitor (Roche, #4906837001). The wells were then agitated by pipetting a few times, the testing plates were held on ice for 30 minutes to affect complete lysis of the cells. The cell lysate from the testing wells was then collected into EP tubes, and the tubes were spun at about 20000×g for 10 minutes at 4° C., before collecting the supernatant from the testing cells.
Protein concentrations in the collected supernatants were measured using BCA methods. The cell lysate was mixed with 5× NuPAGE SDS Loading Buffer and heated at 100° C. for 10 minutes in a heat block. Then 15 μL samples (15 μg) were loaded into 26-well SDS-PAGE gel (Novex, WXP81626BOX) and the gels were processed at 120 V for 1.5 hours, prior to electrotransfer to an NC membrane using a wet-transfer method with 250 mA for 1.5 hours. The resulting membrane was then blocked for 1 hours with LICOR blocking buffer (LI-COR, 927-70001), and was then incubated with a primary antibody 1:1000 (Anti-KRAS (LS-C175665)) that was previously prepared in block buffer at 4° C. overnight. Then, the membrane was washed three times with 1×TBST for 5 minutes each washing, and the membrane was incubated with a secondary antibody GAM 1:5000 (anti-mouse IgG (LI-COR, 926-68070)) for 1 hour at room temperature. The membrane was then washed three times with 1×TBST for 5 minutes each washing, and the membrane was read on LiCOR.
Table 2 below summarizes the normalized KRAS levels in NCI-H2030 cells that were treated with the exemplary compounds of Examples 1-3 for 24 hours.

BTK = target: T2, BTK (Homo sapiens, UniProt Q06187); test: BTK levels in NAMALWA cells (Western blot); type: cell-based; conditions: 4 hours EBSS starvation
T2 construct: endogenous in cells; host or cells: NAMALWA
T2 sequence (Q06187 whole entry): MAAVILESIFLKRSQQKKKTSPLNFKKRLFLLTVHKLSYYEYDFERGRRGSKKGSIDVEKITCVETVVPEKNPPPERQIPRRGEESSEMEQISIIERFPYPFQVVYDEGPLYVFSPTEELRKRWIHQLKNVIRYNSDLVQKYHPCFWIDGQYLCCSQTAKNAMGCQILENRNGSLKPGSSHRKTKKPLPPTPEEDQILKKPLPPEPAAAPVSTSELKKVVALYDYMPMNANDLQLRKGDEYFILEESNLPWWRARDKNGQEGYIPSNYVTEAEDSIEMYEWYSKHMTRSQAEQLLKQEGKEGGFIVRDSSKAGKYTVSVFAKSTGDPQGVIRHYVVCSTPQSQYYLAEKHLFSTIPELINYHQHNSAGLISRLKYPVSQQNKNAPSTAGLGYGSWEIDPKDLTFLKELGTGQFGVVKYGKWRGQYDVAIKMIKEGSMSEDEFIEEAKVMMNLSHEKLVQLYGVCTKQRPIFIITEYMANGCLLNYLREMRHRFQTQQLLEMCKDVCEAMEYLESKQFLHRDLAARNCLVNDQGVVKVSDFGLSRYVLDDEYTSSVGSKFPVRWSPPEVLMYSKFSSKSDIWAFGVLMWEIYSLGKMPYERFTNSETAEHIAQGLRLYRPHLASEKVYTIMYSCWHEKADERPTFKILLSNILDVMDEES
Description: The following protocol was used to test the effect of exemplary compounds on BTK levels in NAMALWA cells.
On Day 1, NAMALWA cells were seeded in 6 well plates at concentration of 2×10^6/well and were incubated overnight. On Day 2, the cells were treated at indicated concentrations following 4 hours of starvation in Earle's Balanced Salt Solution (EBSS, Gibco, #24010-043). After compound treatment for 24 hours, cells were collected and samples were prepared. Fresh, ice cold 1×RIPA lysis buffer supplemented with protease and phosphatase inhibitors was then added to the cell samples, followed by incubation on ice for 30 minutes, and then cells samples were collected. Cell samples were then centrifuged at 4° C., 12,000 rpm for 15 minutes and the resulting supernatant was collected. Protein concentrations within the collected samples were then measured using BCA kit (Solarbio, PC0020), and the cell lysate was mixed with SDS loading buffer and heated at 100° C. for 5 minutes.
15 μg of protein from the samples prepared above was loaded in 4-12% Bis-Tris Gels in 1×MOPS buffer, and the samples were run at 120 V for 120 min. Transfer of the resulting gels was then carried out using the Transblot system with NC membrane, and the membranes were blocked with 5% BSA in TBST for 1 hr at room temperature. Membrane hybridization was then carried out overnight at 4° C. with primary antibodies (anti-BTK, Cell Signaling Technology #8547, Rabbit, 1:1000 diluted in 1% BSA in TBST), and the resulting membranes were washed with TBST for 3×10 min at RT, and then incubated with second antibodies (Goat anti-Rabbit IgG H&L, IRDye® 800CW, LI-COR, 926-32211, 1:5000 diluted in 1% BSA in TBST) in 1% BSA for 1 hr at room temperature. After washing the resulting membranes with TBST for 10 min, 3 times at room temperatures, the membranes were imaged using a Li-COR imaging system.
Table 3 below summarizes the normalized BTK levels in NAMALWA cells treated with the exemplary compounds of Examples 6-8 for 24 hours.

Structure (SMILES) | Normalized KRAS levels in NCI-H2030 cells treated with Compounds for 24 hours (KRAS; 3.33 μM compound concentration) | Normalized KRAS levels in NCI-H2030 cells treated with Compounds for 24 hours (KRAS; 10 μM compound concentration) | Normalized BTK levels in NAMALWA cells treated with Compounds for 24 hours after 4 hours of starvation in EBSS (BTK; 3.33 μM compound concentration) | Normalized BTK levels in NAMALWA cells treated with Compounds for 24 hours after 4 hours of starvation in EBSS (BTK; 10 μM compound concentration) | further results
C=C(F)C(=O)N1CCN(c2nc(OC[C@@H]3CCCN3CCCOCCOCCOCCOc3c(Br)cc(C=C4C(=O)Nc5ccc(I)cc54)cc3Br)nc3c2CCN(c2cccc4cccc(Cl)c24)C3)C[C@@H]1CC#N [Example 1, 2-((S)-4-(7-(8-chloronaphthalen-1-yl)-2-(((S)-1-(3-(2-(2-(2-(2,6-dibromo-4-((5-iodo-2-oxoindolin-3-ylidene)methyl)phenoxy)ethoxy)ethoxy)ethoxy)propyl)pyrrolidin-2-yl)methoxy)-5,6,7,8-tetrahydropyrido[3,4-d]pyrimidin-4-yl)-1-(2-fluoroacryloyl)piperazin-2-yl)acetonitrile] | 84.9% | 87.5% | – | – | –
C=C(F)C(=O)N1CCN(c2nc(OC[C@@H]3CCCN3CCCOCCOc3c(Br)cc(C=C4C(=O)Nc5ccc(I)cc54)cc3Br)nc3c2CCN(c2cccc4cccc(Cl)c24)C3)C[C@@H]1CC#N [Example 2, 2-((S)-4-(7-(8-chloronaphthalen-1-yl)-2-(((S)-1-(3-(2-(2,6-dibromo-4-((5-iodo-2-oxoindolin-3-ylidene)methyl)phenoxy)ethoxy)propyl)pyrrolidin-2-yl)methoxy)-5,6,7,8-tetrahydropyrido[3,4-d]pyrimidin-4-yl)-1-(2-fluoroacryloyl)piperazin-2-yl)acetonitrile] | 45.1% | 48.6% | – | – | –
C=C(F)C(=O)N1CCN(c2nc(OC[C@@H]3CCCN3CCCOCCOCCOc3c(Br)cc(C=C4C(=O)Nc5ccc(I)cc54)cc3Br)nc3c2CCN(c2cccc4cccc(Cl)c24)C3)C[C@@H]1CC#N [Example 3, 2-((S)-4-(7-(8-chloronaphthalen-1-yl)-2-(((S)-1-(3-(2-(2-(2,6-dibromo-4-((5-iodo-2-oxoindolin-3-ylidene)methyl)phenoxy)ethoxy)ethoxy)propyl)pyrrolidin-2-yl)methoxy)-5,6,7,8-tetrahydropyrido[3,4-d]pyrimidin-4-yl)-1-(2-fluoroacryloyl)piperazin-2-yl)acetonitrile] | 63.0% | 65.7% | – | – | –
Nc1ncnc2c1c(-c1ccc(Oc3ccccc3)cc1)nn2C1CCN(CCOCCOCCOCCOCCN2C(=O)C(=Cc3cc(Br)c(O)c(Br)c3)c3cc(I)ccc32)CC1.O=CO [Example 6, 1-(14-(4-(4-amino-3-(4-phenoxyphenyl)-1H-pyrazolo[3,4-d]pyrimidin-1-yl)piperidin-1-yl)-3,6,9,12-tetraoxatetradecyl)-3-(3,5-dibromo-4-hydroxybenzylidene)-5-iodo indolin-2-one formate] | – | – | – | – | Normalized BTK levels in NAMALWA cells treated with Compounds for 24 hours after 4 hours of starvation in EBSS (BTK; 10 μM column, footnote: tested at 11.1 uM from 100 uM top concentration): ~58.7%*; Normalized BTK levels in NAMALWA cells treated with Compounds for 24 hours after 4 hours of starvation in EBSS (BTK; 30 μM column, footnote: tested at 33.3 uM from 100 uM top concentration): ~30.1%*
Nc1ncnc2c1c(-c1ccc(Oc3ccccc3)cc1)nn2C1CCN(CCOCCOCCOCCN/C(=C2\C(=O)Nc3ccc(Br)cc32)c2cccc(O)c2)CC1.O=CO [Example 7, (3Z)-3-[[2-[2-[2-[2-[4-[4-amino-3-(4-phenoxyphenyl)pyrazolo[3,4-d]pyrimidin-1-yl]-1-piperidyl]ethoxy]ethoxy]ethoxy]ethylamino]-(3-hydroxyphenyl)methylene]-5-bromo-indolin-2-one formate] | – | – | 67.0% | 48.2% | –
Nc1ncnc2c1c(-c1ccc(Oc3ccccc3)cc1)nn2C1CCN(CCOCCOCCN/C(=C2\C(=O)Nc3ccc(Br)cc32)c2cccc(O)c2)CC1 [Example 8, (3Z)-3-[[2-[2-[2-[4-[4-amino-3-(4-phenoxyphenyl)pyrazolo[3,4-d]pyrimidin-1-yl]-1-piperidyl]ethoxy]ethoxy]ethylamino]-(3-hydroxyphenyl)methylene]-5-bromo-indolin-2-one] | – | – | 83.1% | 66.3% | –
